Reference: patent US20040009185A1, “Enhancing the immune response to an antigen by presensitzing with an inducing agent prior to immunizing with the agent and the antigen” (priority 2003, published 2004)

Key:
[1] = tested on: gp100 (native or modified); type: in vivo, A2Kb transgenic mice; details: priming with 20.0 μg toxoid i.m., then ALVAC gp100 recombinant given as a mixture with the toxoid; FIGS. 7 and 8
[2] = tested on: CEA; type: in vivo, A2Kb transgenic mice; details: priming with 20.0 μg toxoid i.m., then ALVAC CEA recombinant given as a mixture with the toxoid; FIG. 6
[3] = tested on: modified gp100; set-up: species or system A2Kb transgenic mice; details: mouse, in vivo

| Substance | immune response to the modified gp100 and gp100 antigens (reactive T cells, IFN gamma ELISPOT) [1] | immune response to the CEA antigen (reactive T cells, IFN gamma ELISPOT) [2] | immune response to the immunogen modified gp100 (gp100-specific CTL response) [3] |
| --- | --- | --- | --- |
| diphtheria toxoid | clearly enhanced | clearly enhanced | – |
| tetanus toxoid | clearly enhanced | clearly enhanced | clearly enhanced |
